Experimental data from US8658668B2, “PI3 kinase/mTOR dual inhibitor” (Eli Lilly and Company, priority 2011, dated 2014).

What was measured:
[1] = tested on: SXF 1186 human tumor xenograft cells; test: Oncotest tumor clonogenic assay, SXF 1186; type: cell-based; settings: colony formation, Sarcoma SXF 1186, osteoblastic osteosarcoma, md, read-out: Absolute IC50
[2] = tested on: PAXF 546 human tumor xenograft cells; test: Oncotest tumor clonogenic assay, PAXF 546; type: cell-based; settings: PAXF546, colony formation, Pancreas PAXF 546, inf., mucous squamous cell carcinoma, read-out: Absolute IC50
[3] = tested on: HNXF 908 human tumor xenograft cells; test: Oncotest tumor clonogenic assay, HNXF 908; type: cell-based; settings: colony formation, Head and Neck HNXF 908, squamous epithelium carcinoma, md, read-out: Absolute IC50
[4] = tested on: MEXF 1539 human tumor xenograft cells; test: Oncotest tumor clonogenic assay, MEXF 1539; type: cell-based; settings: colony formation, Melanoma MEXF 1539, amelanotic melanoma, md, read-out: Absolute IC50
[5] = tested on: MAXF 583 human tumor xenograft cells; test: Oncotest tumor clonogenic assay, MAXF 583; type: cell-based; settings: colony formation, Mammary MAXF 583, ductual adeno carcinoma, md, read-out: Absolute IC50
[6] = tested on: LXFL 430 human tumor xenograft cells; test: Oncotest tumor clonogenic assay, LXFL 430; type: cell-based; settings: colony formation, NSCLC LXFL 430, large cell lung carcinoma, pd, read-out: Absolute IC50
pT308 AKT = test: In vivo target inhibition in U87MG tumors, pT308 AKT; settings: Mus musculus, U-87 MG; for inhibition at 0.5 mg/kg: 0.5 mg/kg oral; for inhibition at 1.5 mg/kg: 1.5 mg/kg oral; for inhibition at 3 mg/kg: 3 mg/kg oral; for inhibition at 6 mg/kg: 6 mg/kg oral; for inhibition at 10 mg/kg: 10 mg/kg oral; for inhibition at 12 mg/kg: 12 mg/kg oral
Method: Implant U87MG human glioblastoma cells (5×10^6) subcutaneously into the flank of athymic nude mice in 0.2 mL of matrigel. Ten days post-implantation, dose mice orally according to a time course, single dose/single time point, or dose response protocol for the determination of TMED50 (threshold minimum effective dose). Flash freeze tumors at harvest and collect blood for the determination of parent compound plasma exposure and the calculation of TMEC50 (threshold minimum effective concentration) in the case of dose response studies. Homogenize tumors in 500 μL of XY Lysis Buffer (10 μg/mL Leupeptin, 10 μg/mL Trypsin-Chymotrypsin Inhibitor, 10 μg/mL Tosyl phenyl-alanyl chloromethyl ketone, 10 μg/mL Aprotinin, 60 mM Beta-Glycerol Phosphate, 1% Triton X100, 25 mM Tris pH 7.5, 2.5 mM Pyrophosphate, 150 mM NaCl, 2 mM p-tosyl-L-arginine methyl ester, 15 mM para-nitrophenyl phosphate, 5 mM benzamidine, 1 mM sodium vanadate, 10 mM sodium fluoride, 50 μg/mL phenyl-methane sulfonyl fluoride, 1 mM 1,4-dithiothreitol (DTT), 15 mM EDTA pH 8.0, 5 mM EGTA pH 8.0, 1 μM Microcystin, 1 μM Okadaic Acid, and 1 Roche Complete protease inhibitor mini-tablet per 10 mL) using RNase Free Pellet Pestle (Kimble-Kontes). Aliquot lysates and either assay immediately or store at −80° C. for later testing. Use the multiplex format of Meso Scale Discovery (Gaithersburg, Md.) ELISA technology and measure in vivo target inhibition of PI3K and mTOR to assess effects on phosphorylation of the threonine 308 site of AKT, a downstream effector of PI3K; phosphorylation on the threonine 389 site of p70 S6K and on the serine 240/244 site of S6RP, downstream effectors of mTORC1; phosphorylation of the serine 473 site of AKT, a downstream effector of mTORC2. Add 20 μg of lysate to carbon electrode containing 96-well plates pre-spotted with the appropriate capture antibodies. Probe the protein of interest using a ruthenium labeled detection antibody. Pass current over the electrode in the presence of read buffer containing the co-reactant TPA, and quantitate and record the light generated by electro-chemiluminescence with the MSD Sector 6000 instrument. Calculate percent inhibitions relative to the vehicle control group and perform ANOVA analysis using the JMP software package for the determination of statistical significance.

[7] = tested on: LXFL 529 human tumor xenograft cells; test: Oncotest tumor clonogenic assay, LXFL 529; type: cell-based; settings: colony formation, NSCLC LXFL 529, large cell lung carcinoma, pd, read-out: Absolute IC50
[8] = tested on: human renal carcinoma cells 786-O; test: Xenograft tumor model, 786-O; type: in vivo, mouse; settings: oral gavage
Method: Expand human glioblastoma cells U87MG and human renal carcinoma cells 786-O, in culture, harvest and inject subcutaneously onto the rear flank of athymic nude mice. Expand human non-small cell lung cancer cells NCI-H1975 in culture, harvest and inject subcutaneously onto the rear flank of CD-1 nu/nu mice. Prepare test compound in an appropriate vehicle and administer by oral gavage when tumors are established (7-21 days after implant). Tumor response is determined by tumor volume measurement performed twice a week during the course of treatment. Body weight is taken as a general measurement of toxicity.

Compound `CO[C@@H](C)Cn1c(=O)n(C)c2cnc3ccc(-c4cncc(C(C)(C)O)c4)cc3c21` [Example 1, 8-[5-(1-Hydroxy-1-methylethyl)pyridin-3-yl]-1-[(2S)-2-methoxypropyl]-3-methyl-1,3-dihydro-2H-imidazo[4,5-c]quinolin-2-one] has an IC50 [1] of 110 nM, an IC50 [2] of 105 nM and an IC50 [3] of 52 nM. For the same compound, the IC50 [4] was 246 nM, the IC50 [5] was 88 nM and the IC50 [6] was 56 nM. It also gave an inhibition at 0.5 mg/kg (pT308 AKT; 0.5 hr post dose) of 23%, an inhibition at 0.5 mg/kg (pT308 AKT; 4 hr post dose) of 1% and an inhibition at 1.5 mg/kg (pT308 AKT; 0.5 hr post dose) of 28%. The inhibition at 1.5 mg/kg (pT308 AKT; 4 hr post dose) was -8%, the inhibition at 3 mg/kg (pT308 AKT; 0.25 hr post dose) was 28% and the inhibition at 3 mg/kg (pT308 AKT; 0.5 hr post dose) was 43%. It also gave an inhibition at 3 mg/kg (pT308 AKT; 1 hr post dose) of 7%, an inhibition at 3 mg/kg (pT308 AKT; 3 hr post dose) of 7% and an inhibition at 3 mg/kg (pT308 AKT; 4 hr post dose) of -2%. For the same compound, the inhibition at 6 mg/kg (pT308 AKT; 0.25 hr post dose) was 47%, the inhibition at 6 mg/kg (pT308 AKT; 0.5 hr post dose) was 61% and the inhibition at 6 mg/kg (pT308 AKT; 1 hr post dose) was 41%. The inhibition at 6 mg/kg (pT308 AKT; 2 hr post dose) was 32%, the inhibition at 6 mg/kg (pT308 AKT; 4 hr post dose) was 1% and the inhibition at 6 mg/kg (pT308 AKT; 6 hr post dose) was -4%. For the same compound, the inhibition at 6 mg/kg (pT308 AKT; 12 hr post dose) was -16%, the inhibition at 10 mg/kg (pT308 AKT; 0.5 hr post dose) was 88% and the inhibition at 10 mg/kg (pT308 AKT; 1 hr post dose) was 71%. For the same compound, the inhibition at 10 mg/kg (pT308 AKT; 2 hr post dose) was 53%, the inhibition at 10 mg/kg (pT308 AKT; 4 hr post dose) was 44% and the inhibition at 10 mg/kg (pT308 AKT; 8 hr post dose) was 13%. The inhibition at 12 mg/kg (pT308 AKT; 0.5 hr post dose) was 79%, the inhibition at 12 mg/kg (pT308 AKT; 4 hr post dose) was 43% and the IC50 [7] was 128 nM. The “% TGI” value ([8]; 3 mg/kg BID) was 33.9%, the “% TGI” value ([8]; 6 mg/kg BID) was 56.9% and the “% TGI” value ([8]; 10 mg/kg BID) was 70.2%.
